Measured values reported in patent US20110135742A1, “CONTROLLED RELEASE ENCAPSULATED ANTI-BACTERIAL AND ANTI-INFLAMMATORY NANOPARTICLES” (The Regents of the University of California, priority 2006, published 2011).

Assays:
IL-12p40 = experiment: P. acnes stimulated IL-12p40 production by primary human monocytes; assay type: cell-based; details: primary human monocytes stimulated with P. acnes; dilutions 1, 10^-1, 10^-2; FIG. 5
P. acnes [1] = experiment: Scanning electron microscopy of P. acnes; assay type: cell-based; details: FIG. 7
eukaryotic cells = experiment: MTT assay; assay type: cell-based; details: FIG. 6
P. acnes [2] = experiment: CFU assay against P. acnes; assay type: cell-based; details: FIG. 4
[3] = recorded, background statement; cited from earlier work

SMILES | inhibition of IL-12p40 production (IL-12p40) | physical changes in the bacteria, compared with control (P. acnes [1]) | toxicity to eukaryotic cells (eukaryotic cells) | killing of P. acnes, benzoyl peroxide un-encapsulated or nanoparticle encapsulated (P. acnes [2]) | success as acne medication [3]
O=C(OOC(=O)c1ccccc1)c1ccccc1 [benzoyl peroxide] | inhibited | destroy the bacteria and kill P. acnes | not toxic | kills bacteria | 
CC1=C(/C=C/C(C)=C/C=C/C(C)=C\C(=O)O)C(C)(C)CCC1 [Isotretinoin] |  |  |  |  | 80-90%
